From patent publication US12233177B2, “Method for external sterilization of drug delivery device” (AMGEN INC., priority 2019, dated 2025)

System: Geobacillus stearothermophilus
Experiment: Lethality study of NO2 external sterilization on spiked pre-filled syringes
Assay type: cell-based
Method: At least some of the backstops illustrated in the figures were tested in a lethality study. For example, pre-filled syringes were “spiked” with between 1×10^6 and 6×10^6 CFU (e.g., between 1,000,000 and 6,000,000 CFU) of Geobacillus stearothermophilus before sterilization cycles. As a more specific example, the backstop and barrel portions of the prefilled syringes were spiked with the 1-6×10^6 CFU of Geobacillus stearothermophilus. As used herein, the term “CFU” refers to “Colony-Forming Unit”, which is a unit used to estimate the number of viable bacteria or fungal cells in a sample (where “viable” is the ability to multiply via binary fission under controlled conditions). Geobacillus stearothermophilus (previously Bacillus stearothermophilus) is a rod-shaped, gram-positive bacterium and a member of the division Firmicutes. The bacterium is a thermophile and is widely distributed in soil, hot springs, ocean sediment, and is a potential cause of spoilage in food products. The spiked pre-filled syringes were then sterilized using various sterilization parameters to measure the lethality of the sterilization process to evaluate the Sterility Assurance Level (SAL). The pre-filled syringes were spiked with biological indicators or direct inoculation, as is discussed in more detail below.
For each recipe number, five samples (or at least 5 test locations on one or more samples) were tested. […] For example, the target lethality for this test was a Sterility Assurance Level (SAL) of […]. In other words, the target lethality for this test was 6 logs reduction in the number of bacteria present (before sterilization vs. after sterilization). As a more specific example, for Recipe Number 1, one of the five samples tested reached this target lethality for the backstop area (Col. “Spiked Backstop”, row corresponding with Recipe Number 1), but all five of the samples tested reached this target lethality for the barrel area (Col. “Spiked Barrel”, row corresponding with Recipe Number 1). It should be noted that the spiked backstop test results for Recipe Nos. 1-4 (utilizing the backstop 20 shown in FIGS. 2A-2H) were tested via direct inoculation whereas the spiked backstop test results for Recipe Nos. 5-14 (utilizing alternative backstop 120) were tested via biological indicators. It also should be noted that “-” symbols indicate that no data is reported for those parameters/samples. The testing method variance aside, the samples tested utilizing backstops with protrusions achieved target lethality at a much higher rate than the samples utilizing the backstop without protrusions. As discussed above, the ridges minimize and/or prevent occluded spaces and instead permit the sterilization agent to completely or substantially reach various components of the pre-filled syringe, particularly the backstop and flange areas.

`[O]N=O` [NO2, Nitrogen Dioxide] was tested, and the “Spiked Barrel: samples out of 5 reaching target lethality (6 logs reduction)” value (from here on “Spiked Barrel: samples out … (6 logs reduction)”) (Recipe 1: 100 Torr, NO2 10 mg/L, 75% RH, dwell 10 min, 2 pulses, 24 aerations, PFS with backstop 20) was 5/5, the “Spiked Backstop: samples out of 5 reaching target lethality (6 logs reduction)” value (“Spiked Backstop … (6 logs reduction)” below) (Recipe 1: 100 Torr, NO2 10 mg/L, 75% RH, dwell 10 min, 2 pulses, 24 aerations, backstop 20, direct inoculation) was 1/5 and the “Spiked Barrel: samples out … (6 logs reduction)” value (Recipe 2: 300 Torr, NO2 10 mg/L, 75% RH, dwell 10 min, 2 pulses, 35 aerations, PFS with backstop 20) was 5/5. The “Spiked Backstop … (6 logs reduction)” value (Recipe 2: 300 Torr, NO2 10 mg/L, 75% RH, dwell 10 min, 2 pulses, 35 aerations, backstop 20, direct inoculation) was 0/5, the “Spiked Barrel: samples out … (6 logs reduction)” value (Recipe 3: 100 Torr, NO2 20 mg/L, 80% RH, dwell 20 min, 4 pulses, 24 aerations, PFS with backstop 20) was 5/5 and the “Spiked Backstop … (6 logs reduction)” value (Recipe 3: 100 Torr, NO2 20 mg/L, 80% RH, dwell 20 min, 4 pulses, 24 aerations, backstop 20, direct inoculation) was 0/5. For the same molecule, the “Spiked Barrel: samples out … (6 logs reduction)” value (Recipe 4: 20 Torr, NO2 10 mg/L, 80% RH, dwell 10 min, 4 pulses, 35 aerations, PFS with backstop 20) was 5/5, the “Spiked Backstop … (6 logs reduction)” value (Recipe 4: 20 Torr, NO2 10 mg/L, 80% RH, dwell 10 min, 4 pulses, 35 aerations, backstop 20, direct inoculation) was 2/5 and the “Spiked Barrel: samples out … (6 logs reduction)” value (Recipe 5: 20 Torr, NO2 10 mg/L, 75% RH, dwell 10 min, 8 pulses, 28 aerations, PFS with alternative backstops) was 5/5. The “Spiked Backstop … (6 logs reduction)” value (Recipe 5: 20 Torr, NO2 10 mg/L, 75% RH, dwell 10 min, 8 pulses, 28 aerations, alternative backstops, biological indicators) was 5/5, the “Spiked Backstop … (6 logs reduction)” value (Recipe 6: 20 Torr, NO2 20 mg/L, 80% RH, dwell 20 min, 4 pulses, 24 aerations, alternative backstops, biological indicators) was 5/5 and the “Spiked Backstop … (6 logs reduction)” value (Recipe 7: 20 Torr, NO2 10 mg/L, 80% RH, dwell 20 min, 4 pulses, 24 aerations, alternative backstops, biological indicators) was 5/5. For the same molecule, the “Spiked Backstop … (6 logs reduction)” value (Recipe 8: 20 Torr, NO2 10 mg/L, 80% RH, dwell 10 min, 4 pulses, 24 aerations, alternative backstops, biological indicators) was 5/5, the “Spiked Backstop … (6 logs reduction)” value (Recipe 9: 20 Torr, NO2 10 mg/L, 80% RH, dwell 10 min, 2 pulses, 24 aerations, alternative backstops, biological indicators) was 5/5 and the “Spiked Barrel: samples out … (6 logs reduction)” value (Recipe 10: 20 Torr, NO2 10 mg/L, 80% RH, dwell 10 min, 1 pulse, 24 aerations, PFS with alternative backstops) was 5/5. For the same molecule, the “Spiked Backstop … (6 logs reduction)” value (Recipe 10: 20 Torr, NO2 10 mg/L, 80% RH, dwell 10 min, 1 pulse, 24 aerations, alternative backstops, biological indicators) was 5/5, the “Spiked Barrel: samples out … (6 logs reduction)” value (Recipe 11: 20 Torr, NO2 5 mg/L, 80% RH, dwell 10 min, 1 pulse, 24 aerations, PFS with alternative backstops) was 4/5 and the “Spiked Backstop … (6 logs reduction)” value (Recipe 11: 20 Torr, NO2 5 mg/L, 80% RH, dwell 10 min, 1 pulse, 24 aerations, alternative backstops, biological indicators) was 5/5. For the same molecule, the “Spiked Barrel: samples out … (6 logs reduction)” value (Recipe 12: 20 Torr, NO2 5 mg/L, 80% RH, dwell 10 min, 2 pulses, 24 aerations, PFS with alternative backstops) was 5/5, the “Spiked Backstop … (6 logs reduction)” value (Recipe 12: 20 Torr, NO2 5 mg/L, 80% RH, dwell 10 min, 2 pulses, 24 aerations, alternative backstops, biological indicators) was 5/5 and the “Spiked Barrel: samples out … (6 logs reduction)” value (Recipe 13: 20 Torr, NO2 5 mg/L, 80% RH, dwell 5 min, 2 pulses, 24 aerations, PFS with alternative backstops) was 5/5. The “Spiked Backstop … (6 logs reduction)” value (Recipe 13: 20 Torr, NO2 5 mg/L, 80% RH, dwell 5 min, 2 pulses, 24 aerations, alternative backstops, biological indicators) was 5/5, the “Spiked Barrel: samples out … (6 logs reduction)” value (Recipe 15: 500 Torr, NO2 5 mg/L, 80% RH, dwell 5 min, 2 pulses, 70 aerations, PFS with alternative backstops) was 5/5 and the “Spiked Backstop … (6 logs reduction)” value (Recipe 15: 500 Torr, NO2 5 mg/L, 80% RH, dwell 5 min, 2 pulses, 70 aerations, alternative backstops, biological indicators) was 5/5.
